Consider two compounds from patent publication US11452731B2, “Method of treating and preventing loss of cognition” (ENDORECHERCHE, INC., priority 2009, dated 2022).

For orientation: IC50 means the point on the concentration scale where inhibition reaches its midpoint.

Assay [1] deals with MCF-7 human breast cancer cells. Kind of assay: Proliferation (DNA content) of human breast cancer MCF-7 cells (Example 7). The assay is classed as cell-based. To be noted: for IC50: Homo sapiens, read-out: Inhibition of 1 nM E2 stimulation of DNA by tested compounds IC50. An excerpt: MCF-7 human breast cancer cells were obtained from the American Type Culture Collection #HTB 22 at passage 147 and routinely grown in phenol red-free Dulbecco's Modified Eagle's-Ham's F12 medium, the supplements mentioned above and 5% FBS. The MCF-7 human breast adenocarcinoma cell line was derived from the pleural effusion of a patient. MCF-7 cells were used between passages 148 and 165 and subcultured weekly
Thereafter, medium was replaced with fresh medium containing the indicated concentrations of compounds diluted from 1000×stock solutions in 99% redistilled ethanol in the presence or absence of E2. Control cells received only the ethanolic vehicle (0.1% EtOH, v/v). Cells were incubated for the specified time intervals with medium changes at 2- or 3-day intervals. Cell number was determined by measurement of DNA content.
All results are expressed as means±SEM.

Assay [2] in a line: Uterine and vaginal weight in ovariectomized BALB/c mice treated orally for 9 days with or without estrone (Example 3). The assay is classed as in vivo. To be noted: for inhibition of estrone-stimulated uterine weight / inhibition of vaginal weight (estrone-stimulated): OVX mice + estrone, oral 9 days. In a few lines:
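OVX BALB/c mice (18-20 g) were dosed orally by gavage once daily for 9 days from day 2 post-OVX, with or without estrone s.c. twice daily from day 5 for 6 days. The vehicle was 4% ethanol in 0.4% methylcellulose. Uterine and vaginal weights were taken on the 11th morning after OVX.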

Assay [3] in a line: 3-month treatment of ovariectomized rats: lumbar spine BMD, total body fat, serum cholesterol, ALP (Example 4, experiment 1). It is filed as in vivo, rat. To be noted: OVX rats, 3 months; for LUMBAR SPINE BMD / LUMBAR SPINE Prevention of Bone Loss: E2 1 mg/kg, EM-652.HCl 2.5 mg/kg, DHEA 80 mg/kg. The procedure:
(§1) Ten to twelve week-old female Sprague-Dawley rats (Crl:CD(SD)Br) (Charles River Laboratory, St-Constant, Canada) weighing approximately 220-270 g at start of treatment were used. The animals were acclimatized to the environmental conditions (temperature: 22±3° C.; humidity: 50±20%; 12-h light-12-h dark cycles, lights on at 07:15 h) for at least 1 week before starting the experiments. The animals were housed individually and were allowed free access to tap water and a pelleted certified rodent feed (Lab Diet 5002, Ralston Purina, St-Louis, Mo.). Experiments were conducted in an animal facility approved by the Canadian Council on Animal Care (CCAC) and the Association for Assessment and Accreditation of Laboratory Animal Care (AAALAC) in accordance with the CCAC Guide for Care and Use of Experimental Animals.
On day 1 of the study, the animals of the appropriate groups were bilaterally ovariectomized (OVX) under isoflurane anesthesia. The DHEA was applied topically on the dorsal skin as a solution in 50% ethanol-50% propylene glycol while the other tested compounds were administered as suspension in 0.4% methylcellulose by oral gavage. Treatments were initiated on day 2 of the study and were performed once daily during 3 months.
After 3 months (experiment 1) or 26 weeks (experiment 2) of treatment, individual rats under Isoflurane anesthesia had their whole body skeleton and lumbar spine scanned using dual energy x-ray absorptiometry (DEXA; QDR 4500A, Hologic, Waltham, Mass.) and a Regional High Resolution Scan software. The bone mineral density (BMD) of the lumbar spine (vertebrae L2 to L4) and the total body composition (fat percentage) were determined.
After 3 months (experiment 1) or 26 weeks (experiment 2) of treatment, blood samples were collected at the jugular vein from overnight fasted animals (under Isoflurane anesthesia). Samples were processed for serum preparation and frozen at −80° C. until assay. Serum cholesterol levels and alkaline phospatase activity (ALP) were determined using the Boehringer Mannheim Diagnostic Hitachi 911 Analyzer (Boehringer Mannheim Diagnostic Laboratory Systems).

Assay [4] in a line: 5-week treatment of ovariectomized rats with SERMs alone or with DHEA: BMD of lumbar spine, femur, tibia (Example 5). The assay is classed as in vivo, rat. To be noted: OVX rats, 5 weeks; for LUMBAR SPINE (L2-L4) BMD / LUMBAR SPINE (L2-L4) Prevention of Bone Loss: SERMs 2.5 mg/kg, DHEA 80 mg/kg. Here is the method:
as §1
On day 1 of the study, the animals of the appropriate groups were bilaterally ovariectomized (Ovx) under isoflurane anesthesia. The DHEA was applied topically on the dorsal skin as a solution in 50% ethanol-50% propylene glycol while the tested SERMs were administered as suspension in 0.4% methylcellulose by oral gavage. Treatments were initiated on day 2 of the study and were performed once daily during 5 weeks.
After 5 weeks of treatment, individual rats under Isoflurane anesthesia had their lumbar spine, femur and tibia scanned using dual energy x-ray absorptiometry (DEXA; QDR 4500A, Hologic, Waltham, Mass.) and a Regional High Resolution Scan software. The bone mineral density (BMD) of the lumbar spine (vertebrae L2 to L4), distal femoral metaphysis (DFM) and proximal tibial metaphysis (PTM) were determined.

The conditions of assay [5]: cited from earlier work.
Assay [6] can be described thus: 9-month treatment with DHEA and/or EM-800 in the rat: urinary and serum markers of bone metabolism. The assay is classed as in vivo. An excerpt:
It is particularly important to indicate that the combination of DHEA and EM-800 exerted unexpected beneficial effects on important biochemical parameters of bone metabolism. […] Moreover, no effect of DHEA could be detected on daily urinary calcium or phosphorus excretion (Luo et al., 1997). EM-800 decreased the urinary hydroxyproline/creatinine ratio by 48% while, similarly to DHEA, no effect of EM-800 was seen on urinary calcium or phosphorus excretion. EM-800, moreover, had no effect on serum alkaline phosphatase activity, a marker of bone formation while DHEA increased the value of the parameter by about 75% (Luo et al., 1997).

[7] abbreviates: OVX mice, absence of estrone, 10 μg daily (no-effect statements: 1 μg and 10 μg).
[8] abbreviates: DHEA 10 mg, EM-800 75 μg, alone or combined.

Molecules are shown by their SMILES. Entries after “also recorded” stand apart in the source; their conditions may differ. Like-named read-outs stand apart in the source and are kept apart here.

Take `CC1=C(c2ccc(O)cc2)[C@H](c2ccc(OCCN3CCCCC3)cc2)Oc2cc(O)ccc21.Cl` [EM-652.HCl, (S)-(+)-7-hydroxy-3-(4′-hydroxyphenyl)-4-methyl-2-(4″-(2′″-piperidinoethoxy)phenyl)-2H-1-benzopyran hydrochloride]: the IC50 in assay [1] (MCF7, MCF-7, Experiment 1) was 0.796 nM. Moreover, the IC50 in assay [1] (MCF7, MCF-7, Experiment 2) is 0.205 nM. For the same compound, in assay [1] (MCF-7, Experiment 1), the “Maximal stimulation of DNA by tested compounds % of 1 nM E2 stimulation” value is reported as “N.S”. Besides, the “Stimulation of DNA by tested compounds % of 1 nM E2 stimulation” value in assay [1] (MCF-7, Experiment 2) was “N.S”. In assay [2] (1 μg daily), the “inhibition of estrone-stimulated uterine weight” value is reported as 24% and the “inhibition of vaginal weight (estrone-stimulated)” value (from here on “inhibition of vaginal weight”) is 10%. Besides, in assay [2] (3 μg daily), the “inhibition of estrone-stimulated uterine weight” value turned out to be 48% and the “inhibition of vaginal weight” value is reported as 25%. In assay [2] (10 μg daily), the “inhibition of estrone-stimulated uterine weight” value came out at 72% and the “inhibition of vaginal weight” value is 53%. In assay [2] (setting [7]), the “stimulation of uterine weight (estrogenic effect)” value was “no significant stimulatory effect” and the “stimulation of vaginal weight (estrogenic effect)” value is given as “no significant stimulatory effect”. In assay [3], the “ALP (serum alkaline phosphatase activity)” value was found to be 91 ± 6 IU/L, the “CHOLESTEROL (serum)” value worked out at 0.87 ± 0.04 mmol/L, the “LUMBAR SPINE BMD” value worked out at 0.2374 ± 0.0027 g/cm^2 and the “LUMBAR SPINE Prevention of Bone Loss” value amounted to 65%. The “TOTAL FAT” value in assay [3] (hydrochloride) is given as “completely prevented”. Moreover, the “TOTAL FAT” value in assay [3] (listed as EM-652•HCl, hydrochloride) is listed as 23.2 ± 1.4 %. Further, in assay [4], the “DISTAL FEMORAL METAPHYSIS (DFM) BMD” value came to 0.3008 ± 0.0055 g/cm^2, the “DISTAL FEMORAL METAPHYSIS (DFM) Prevention of Bone Loss” value came to 95%, the “PROXIMAL TIBIAL METAPHYSIS (PFM) BMD” value is 0.2806 ± 0.0035 g/cm^2 and the “PROXIMAL TIBIAL METAPHYSIS (PFM) Prevention of Bone Loss” value was 92%. Besides, in assay [4], the “LUMBAR SPINE (L2-L4) BMD” value was determined as 0.2232 ± 0.0031 g/cm^2 and the “LUMBAR SPINE (L2-L4) Prevention of Bone Loss” value worked out at 86%.

With `C[C@]12CC[C@H](O)CC1=CC[C@@H]1[C@@H]2CC[C@]2(C)C(=O)CC[C@@H]12` [DHEA, dehydroepiandrosterone], in assay [3], the “ALP (serum alkaline phosphatase activity)” value was 224±18 IU/L, the “CHOLESTEROL (serum)” value was determined as 1.59 ± 0.10 mmol/L, the “TOTAL FAT” value came to 17.3 ± 1.5 % and the “LUMBAR SPINE BMD” value was 0.2321 ± 0.0034 g/cm^2. Further, in assay [3], the “LUMBAR SPINE Prevention of Bone Loss” value is 43%. For the same compound, the “decrease of abdominal subcutaneous fat” value in assay [5] (both women and men) was 6%. Moreover, in assay [5] (in vivo), the “decrease of responsiveness of serum insulin to the glucose tolerance test” value is reported as 13% and the “improvement in the insulin sensitivity index” value is recorded as 34%. For the same compound, in assay [5] (men), the “decrease of abdominal visceral fat” value is listed as 7.4%. The “decrease of abdominal visceral fat” value in assay [5] (women) is given as 10.2%. Further, in assay [6], the “decrease of urinary hydroxyproline/creatinine ratio (marker of bone resorption)” value was “did not affect; also recorded: did not show any effect”, the “effect on daily urinary calcium or phosphorus excretion” value is listed as “no effect” and the “increase of serum alkaline phosphatase activity (marker of bone formation)” value is recorded as “about 75%”. For the same compound, in assay [6] (setting [8]), the “Serum tALP” value turned out to be 198.38 ± 30.76 IU/L, the “Urine HP/Cr” value was determined as 14.02 ± 1.59 μmol/mmol, the Urine calcium is on record as 25.87 ± 3.54 μmol/24 h/100 g and the Urine phosphorus came out at 151.41 ± 14.57 μmol/24 h/100 g. In assay [4], the “DISTAL FEMORAL METAPHYSIS (DFM) BMD” value is 0.2934 ± 0.0046 g/cm^2, the “DISTAL FEMORAL METAPHYSIS (DFM) Prevention of Bone Loss” value was found to be 71%, the “PROXIMAL TIBIAL METAPHYSIS (PFM) BMD” value came out at 0.2672 ± 0.0041 g/cm^2 and the “PROXIMAL TIBIAL METAPHYSIS (PFM) Prevention of Bone Loss” value worked out at 42%. For the same compound, in assay [4], the “LUMBAR SPINE (L2-L4) BMD” value came out at 0.2144 ± 0.0028 g/cm^2 and the “LUMBAR SPINE (L2-L4) Prevention of Bone Loss” value amounted to 44%.
